The source of these data is article PMC8846325, “A Photoactivable Natural Product with Broad Antiviral Activity against Enveloped Viruses, Including Highly Pathogenic Coronaviruses” (Antimicrobial Agents and Chemotherapy, 2022).

Usually CC50 stands for the concentration that lowers cell viability or growth by half. Usually IC50 stands for the concentration that inhibits the measured activity by half.

Type in all cases: cell-based
For one data set, the system named is SARS-CoV-2.
Data set [1] relates to HCoV-229E. The data set is described as follows: Quencher assay (singlet oxygen quenchers).
For a further data set, the system named is Huh-7 cells. The data set is described as follows: MTS cell toxicity assay, Huh-7 cells. Conditions: for CC50: Huh-7 cells, 24 h, light exposure. How it is done: (§1) A total of 6 × 10^4 Huh-7, Vero-E6, and Vero-81 cells were seeded in 96-well plates and incubated for 16 h at 37°C in a 5% CO2 incubator. The cells were then treated with increasing concentrations of the compound of interest. One hour after inoculation, cells were taken out of the incubator to be exposed to the white light of a biosafety cabinet (BSC) for 10 min, after which cells were further incubated in the dark at 37°C and 5% CO2 for 23 h. The BSC’s light source lamp consists of one fluorescent tube of 36 W, 3,350 lumen, white light. An MTS [3-(4,5-dimethylthiazol-2-yl)-5-(3-carboxymethoxyphenyl)-2-(4-sulfophenyl)-2H-tetrazolium]-based viability assay (Cell Titer 96 aqueous nonradioactive cell proliferation assay; Promega) was performed as recommended by the manufacturer. The absorbance of formazan at 490 nm was detected using a plate reader (ELX 808 Bio-Tek Instruments Inc.). Each measure was performed in triplicate, and each experiment was repeated at least 3 times.
(§2) 6×104 Huh-7, Vero-E6 and Vero-81 cells were seeded in 96-well plates and incubated for 16 h at 37 °C 5% CO2 incubator. The cells were then treated with increasing concentrations of the compound of interest. One hour after inoculation, cells were either left in the incubator (dark condition) or taken out to be exposed to the white light of the biosafety cabinet (BSC) for 10 min (light condition), after which cells were further incubated in the dark at 37 °C 5% CO2 for 23 h. BSC’s light source lamp consists of one fluorescent tube of 36W, 3350 lumen white light. An MTS [3-(4,5-dimethylthiazol-2-yl)-5-(3-carboxymethoxyphenyl)-2-(4-sulfophenyl)- 2H-tetrazolium]-based viability assay (Cell Titer 96 Aqueous non-radioactive cell proliferation assay, Promega) was performed as recommended by the manufacturer. The absorbance of formazan at 490 nm was detected using a plate reader (ELX 808 Bio-Tek […]
(§3) Instruments Inc). […]
(In general: Tetrazolium assays rely on reduction of a dye to a coloured formazan, in cell work by metabolically active cells.)

In data set [2] the test system is HCoV-229E. The experiment in a line: HCoV-229E-Luc infection inhibition luciferase assay. The note with it: for light dependence of antiviral effect: HCoV-229E, light versus dark; for antiviral activity against HCoV-229E-Luc, screening of related compounds: Huh-7 cells, 1, 5, 10 µM, light exposure.
A short description of data set [3]: MTS cell toxicity assay, Huh-7 cells. The note with it: human, Huh-7 cells, 24 h, light exposure; read-out: CC50 (μM) 24 h. How it is done:
as §1, §2, §3

The mark [4] stands for this setting: against HCoV-229E, Huh-7 cells, normal white light exposure, read-out: IC50.

Where two headings read alike, the source gives them in different places.

Regarding `CCN(CC)CCCC(C)Nc1ccnc2cc(Cl)ccc12` (centres unmarked) [chloroquine, reference compound], in the data set on SARS-CoV-2, the “infectivity relative to normal levels, compound added more than 2 h after inoculation” value is recorded as “around 60%”.
In the case of `Cc1c(C)c2c(c(C)c1O)CCC(C)(C(=O)O)O2` (centres unmarked) [Trolox], the “effect of quencher on antiviral action of Pba” value in the data set with HCoV-229E [1] (quencher 10 mM, Pba 0.5 or 1 μM) is given as “able to reduce the action of Pba”.
In the case of `[N-]=[N+]=[N-].[Na+]` [NaN3], the “effect of quencher on antiviral action of Pba” value in the data set on HCoV-229E [1] was “able to reduce the action of Pba”.
Turning to HPPH, in the data set on Huh-7 cells, half-maximal cytotoxicity (CC50) was put at 8.13 µM. Besides, the “light dependence of antiviral effect” value with HCoV-229E [2] is on record as “light-dependent antiviral effect”. Besides, the IC50 at HCoV-229E [2] (setting [4]) is 1140 nM.
Consider `C=Cc1c(C)c2cc3nc(c4c5[nH]c(cc6nc(cc1[nH]2)C(C)=C6CC)c(C)c5C(=O)C4)[C@@H](CCC(=O)O)[C@@H]3C` [PyroPba, pyropheophorbide a], for which the “toxicity on Huh-7 cells, screening of related compounds” value in the data set on Huh-7 cells (5, 10, and 25 µM, light) is reported as “toxic at tested concentrations”. Further, the half-maximal cytotoxic concentration (CC50) at 24 h in data set [3] came out at 2.67 µM. Also, in the data set with HCoV-229E [2], the “light dependence of antiviral effect” value is on record as “light-dependent antiviral effect”. The compound further gave an IC50 in the data set with HCoV-229E [2] (Human coronavirus 229E, Huh-7) of 350 nM.
For the compound `C1=Cc2nc1cc1ccc([nH]1)c(-c1ccccc1)c1nc(cc3ccc([nH]3)c2-c2ccccc2)C=C1` [5,15-DPP], in the data set with HCoV-229E [2], the “antiviral activity against HCoV-229E-Luc, screening of related compounds” value (shortened to “antiviral activity against HCoV-229E-Luc”) is given as “not active at the tested concentrations”.
On the same count and under the same terms, the value for hemin chloride was “moderate antiviral activity”; that for `C=Cc1c(C)c2cc3nc(c4c5[n-]c(cc6nc(cc1[n-]2)C(C=O)=C6CC)c(C)c5C(=O)[C@@H]4C(=O)OC)[C@@H](CCC(=O)OC/C=C(\C)CCC[C@H](C)CCC[C@H](C)CCCC(C)C)[C@@H]3C.[Mg+2]` [Chlorophyll b] was “not active at the tested concentrations”.
On to `C=CC1=C(C)c2cc3[n-]c(cc4[n-]c(cc5nc(cc1n2)C(C)=C5C=C)c(C)c4CCC(=O)O)c(CCC(=O)O)c3C.[Zn+2]` [Zn protoporphyrin IX, Zn-protoporphyrin IX], for which, in the data set with Huh-7 cells, the CC50 was 16.6 µM. In addition, the “light dependence of antiviral effect” value with HCoV-229E [2] is on record as “light-dependent antiviral effect”. Moreover, at HCoV-229E [2] (setting [4]), the IC50 was 790 nM.
In turn, N-methyl protoporphyrin IX returned a CC50 in the data set on Huh-7 cells greater than 80 µM. For the same compound, the “light dependence of antiviral effect” value in the data set with HCoV-229E [2] is reported as “light-dependent antiviral effect”. Also, the “antiviral activity under dark conditions” value in the data set on HCoV-229E [2] (Huh-7 cells) is “showed antiviral activity under dark conditions”. In addition, the IC50 on HCoV-229E [2] (setting [4]) worked out at 1210 nM.
Turning to `C=Cc1c(C)c2cc3nc(c(CC(=O)O)c4[nH]c(cc5nc(cc1[nH]2)C(C)=C5CC)c(C)c4C(=O)O)[C@@H](CCC(=O)O)[C@@H]3C` [Chlorin e6, chlorin e6], in data set [3], the half-maximal cytotoxic concentration (CC50) at 24 h came to 21.4 µM. Further, in the data set on HCoV-229E [2], the “light dependence of antiviral effect” value was “light-dependent antiviral effect”. Also, the IC50 in the data set on HCoV-229E [2] (Human coronavirus 229E, Huh-7) came out at 720 nM.
For `Oc1cccc(-c2c3nc(c(-c4cccc(O)c4)c4ccc([nH]4)c(-c4cccc(O)c4)c4nc(c(-c5cccc(O)c5)c5ccc2[nH]5)CC4)C=C3)c1` [temoporfin], in the data set on HCoV-229E [2], the “antiviral activity against HCoV-229E-Luc” value is recorded as “moderate antiviral activity”.
Still for that read-out and setting: the value for `c1ccc2c(c1)-c1nc-2nc2[nH]c(nc3nc(nc4[nH]c(n1)c1ccccc41)-c1ccccc1-3)c1ccccc21` [phthalocyanine] was “not active at the tested concentrations”.
In the data set on Huh-7 cells, `CCC1=C(C)c2cc3[nH]c(cc4nc(cc5c(CCC(=O)O)c(C)c(cc1n2)n5C)C(CCC(=O)O)=C4C)c(C)c3CC` [N-Methyl mesoporphyrin IX, N-methyl mesoporphyrin IX] gave a CC50 greater than 80 µM. The “light dependence of antiviral effect” value in the data set with HCoV-229E [2] is listed as “light-dependent antiviral effect”. The “antiviral activity under dark conditions” value with HCoV-229E [2] (Huh-7 cells) is given as “showed antiviral activity under dark conditions”. Moreover, the half-maximal inhibitory concentration (IC50) at HCoV-229E [2] (setting [4]) is 1250 nM.
On to `O=C1OC2(c3cc(I)c(O)c(I)c3Oc3c2cc(I)c(O)c3I)c2c(Cl)c(Cl)c(Cl)c(Cl)c21` [Rose Bengale], for which the CC50 in the data set on Huh-7 cells is greater than 80 µM. Also, the “antiviral activity against HCoV-229E-Luc” value in the data set with HCoV-229E [2] is on record as “moderate antiviral activity”. On HCoV-229E [2] (setting [4]), the IC50 amounted to 2860 nM.
